Test results reported in publication PMC9500544, “Anti-Trichomonas gallinae activity of essential oils and main compounds from Lamiaceae and Asteraceae plants” (Frontiers in Veterinary Science, 2022).
In brackets after ≈: the same amount, converted by molar mass. Read-outs that look alike come from different tables or passages of the source.

Tests used:
[1] = test system: Trichomonas gallinae trophozoites; assay: Anti-trichomonal (AT) activity in vitro, MTT reduction assay on trophozoites; type: cell-based; conditions: for IC50: Trichomonas gallinae, read-out: T. gallinae (IC50), concentration needed to produce 50% trophozoite mortality; for AT activity against T. gallinae (in words): no concentration stated
Description: The AT activity assay was performed using round bottom microwell plates in quadruplicate. Each well had 150 μl of T. gallinae trophozoites in Trypticase-Yeast Extract-Maltose medium (TYM) with 10% fetal calf serum (Sigma, Madrid, Spain) at 500.000 trophozoites/ml ([29]). EOs and pure compounds were solved in DMSO (Sigma, Madrid, Spain) (<1% final concentration). […] Trophozoite viability was analyzed using the modified MTT colorimetric assay method as previously described in literature ([29]). Briefly, after incubating the plate for 24 h at 37°C with the EOs and compounds to be tested, the plates were centrifuged at 750 x g, the medium was eliminated and 100 μl of a solution of MTT (Sigma, Madrid, Spain) (1.25 μg/ml) and PMS (Sigma, Madrid, Spain) (0.1 μg/ml) in PBS (Sigma, Madrid, Spain) was added to each well. The plate was incubated for 45 min in dark conditions to allow the reduction of MTT to formazan salts. Prior to reading, 100 μl of DMSO was added to each well to dissolve the formazan crystals. The plate was read in a spectrophotometer using a wavelength of 570 nm.
The percentage of AT activity was calculated as growth inhibition using the following formula:
% AT = 100-[(Ap-Ab)÷(Ac-Ab)]×100
Where Ap is the absorbance of the tested product, Ab the absorbance of the blank and Ac the absorbance of the control wells (culture without treatment).
Pure compounds were assayed using the same method described above, although the concentrations tested were 100, 75, 50, 25, 10, and 1 μg/ml. Metronidazole (Acros Organics, Madrid Spain) was used as a reference drug for antitrichomonal activity.
IC50 (μg/ml) reflects the dose needed to produce 50% mortality of T. gallinae trophozoites.
(§1) IC50 anti-trichomonal activity and CC50 cytotoxic activity were determined from the dose-response experiment, employing a linear regression analysis (% cell viability on log dose).

[2] = in vitro; type: cell-based
Description: (§2) African green monkey kidney cells (Vero cells) were grown in Dulbecco's modified Eagle's minimal essential medium (DMEM, Avantor, Llinars del Vallès, Barcelona) supplemented with 10% fetal calf serum (Sigma, Madrid, Spain) and 1% penicillin/streptomycin (Fisher Scientific, Madrid, Spain) at 37°C under a humidified atmosphere of 5% CO2/95% air.
(§3) Cells seeded in 96-well flat-bottom microplates with 100 μL medium per well (initial densities 10^4 cells per well) were exposed for 48 h to serial dilutions of the test compounds in DMSO (<1% final concentration). Cell viability was analyzed by the MTT colorimetric assay method, and the purple-colored formazan precipitate was dissolved with 100 μL of DMSO ([30]).
as §1

[3] = test system: Vero cells; assay: in vitro; type: cell-based; conditions: pure compounds; for Vero cells (CC50), concentration needed to produce 50% Vero cell mortality: 48 h exposure, interval in parentheses; for Cytotoxic activity on Vero cells (in words): up to 100 μg/ml, 48 h
Description: as §2, §3, §1

[4] = cited from earlier work
[5] = pure compounds, 24 h incubation, interval in parentheses
[6] = SI = CC50 (Vero cells)/IC50 (T. gallinae)
[7] = pure compounds, 48 h exposure, interval in parentheses, read-out: Vero cells (CC50), concentration needed to produce 50% Vero cell mortality

Molecule	IC50 [1, 5]	CC50 at 48 h ([2]; African green monkey)	CC50 [2, 7]	further results
CC12CCC(CC1)C(C)(C)O2 [1,8 cineole]	> 100 µg/mL	> 100 µg/mL		
CC1=CCC(O)(C(C)C)CC1 (stereo not shown) [4-terpinenol]	41.5 µg/mL (≈ 269 µM)		> 100 µg/mL	SI, Selectivity index [1, 6]: > 2.4
CC1(C)C2CCC1(C)C(O)C2 (stereo not shown) [Borneol]	> 100 µg/mL	> 100 µg/mL		
C=C1C2CCC(C2)C1(C)C (stereo not shown) [Camphene]	24 µg/mL (≈ 176 µM)		74.8 µg/mL (≈ 549 µM)	
CC12CCC(CC1=O)C2(C)C (stereo not shown) [Camphor]	> 100 µg/mL	> 100 µg/mL		
Cc1ccc(C(C)C)cc1O [Carvacrol]	> 100 µg/mL		> 100 µg/mL	
C=C1CC[C@H]2O[C@]2(C)CC[C@@H]2[C@@H]1CC2(C)C [Caryophyllene oxide]				AT activity against T. gallinae (in words) ([1]; pure compounds): slight activity; T. gallinae (IC50), concentration needed to produce 50% trophozoite mortality [1, 5]: ≈100 μg/ml; Vero cells (CC50), concentration needed to produce 50% Vero cell mortality [3]: >100 µg/mL
CC1(C)C(=O)[C@@]2(C)CCC1C2 [D-fenchone]				T. gallinae (IC50), concentration needed to produce 50% trophozoite mortality [1, 5]: 61.9 (54.3–70.6) μg/ml; Vero cells (CC50), concentration needed to produce 50% Vero cell mortality [3]: >100 µg/mL
C=CC(C)(O)CCC=C(C)C (stereo not shown) [Linalool]	> 100 µg/mL		> 100 µg/mL	AT activity against T. gallinae (in words) ([1]; pure compounds): not an active AT compound
C=CC(C)(CCC=C(C)C)OC(C)=O (stereo not shown) [Linalyl acetate]				SI, Selectivity index [1]: > 3.1; IC50 ([1]; 24 h): 32.2 µg/mL; CC50 [2]: > 100 µg/mL
Cc1ncc([N+](=O)[O-])n1CCO [Metronidazole, reference compound]	1 µg/mL (≈ 5.84 µM)	> 100 µg/mL		
Cc1ccc(C(C)C)c(O)c1 [Thymol]	38.4 µg/mL (≈ 256 µM)	> 100 µg/mL		
Cc1ccc(C(C)C)cc1 [p-cymene]	59.7 µg/mL (≈ 445 µM)		> 100 µg/mL	SI, Selectivity index [1, 6]: > 1.7
CC1=CCC2CC1C2(C)C (stereo not drawn) [α-pinene]	44.2 µg/mL (≈ 324 µM)	88.9 µg/mL (≈ 653 µM)		Cytotoxic activity on Vero cells (in words) [3]: slightly toxic
CC1=CC[C@@H](C(C)(C)O)CC1 [α-terpineol]	> 100 µg/mL		> 100 µg/mL	
C=C1CC/C=C(\C)CC[C@@H]2[C@@H]1CC2(C)C [β-caryophyllene]	86.1 µg/mL (≈ 421 µM)		60.8 µg/mL (≈ 298 µM)	AT activity against T. gallinae (in words) ([1]; pure compounds): slight activity; Cytotoxic activity on Vero cells (in words) [3]: slightly toxic
C=C1CCC2CC1C2(C)C (stereo not drawn) [β-pinene]	29.6 µg/mL (≈ 217 µM)		88.2 µg/mL (≈ 647 µM)	
CC1=CCC(C(C)C)=CC1 [γ-terpinene]	43.8 µg/mL (≈ 321 µM)			SI, Selectivity index [1, 6]: > 2.3; CC50 at 48 h [2, 7]: > 100 µg/mL
α and β thujone				T. gallinae (IC50), concentration needed to produce 50% trophozoite mortality [1, 5]: 17.3 (11.3–26.3) μg/ml; Cytotoxic activity on Vero cells (in words) [3]: did not show cytotoxic effect; Vero cells (CC50), concentration needed to produce 50% Vero cell mortality [3]: >100 µg/mL; Neurotoxicity (in words) [4]: potent neurotoxic substances
